The text below walks through data of patent US20250368648A1, “MULTI-CYCLIC IRAK AND FLT3 INHIBITING COMPOUNDS AND USES THEREOF” (CHILDREN'S HOSPITAL MEDICAL CENTER, priority 2022, published 2025).

The target in one experiment is T1, IRAK4 (Homo sapiens, UniProt Q9NWZ3).
T1 sequence (Q9NWZ3 1-460): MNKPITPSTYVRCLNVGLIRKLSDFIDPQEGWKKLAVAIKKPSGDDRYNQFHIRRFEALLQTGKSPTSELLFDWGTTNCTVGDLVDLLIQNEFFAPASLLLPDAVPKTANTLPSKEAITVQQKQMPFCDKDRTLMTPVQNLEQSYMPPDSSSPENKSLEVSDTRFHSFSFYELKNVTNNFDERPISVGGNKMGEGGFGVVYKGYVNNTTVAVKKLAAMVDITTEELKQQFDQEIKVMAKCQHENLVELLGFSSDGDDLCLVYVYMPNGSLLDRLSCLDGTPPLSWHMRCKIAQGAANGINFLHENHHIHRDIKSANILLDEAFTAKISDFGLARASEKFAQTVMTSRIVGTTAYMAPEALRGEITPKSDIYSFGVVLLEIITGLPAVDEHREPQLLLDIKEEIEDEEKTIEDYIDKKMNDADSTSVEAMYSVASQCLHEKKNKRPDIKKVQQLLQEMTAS
In words: RBC HotSpot Kinase Assay, IRAK4. On the set-up: purchased RBC (Reaction Biology) HotSpot assay. To be noted: HotSpot functional assay, isolated kinase enzyme, 33P-ATP. Format: biochemical. The procedure, abridged:
(§1)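 Isolated kinases, possibly truncated or lacking regulatory receptor regions, were preincubated with compound for 20 min at room temp in 20 mM Hepes pH 7.5, 10 mM MgCl2, 1 mM EGTA, 2 mM DTT, 1% DMSO. Reactions were started with ^33P-ATP and run 2 h at room temperature; activity was read by P81 filter binding.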

The next experiment deals with T2, IRAK1 (Homo sapiens, UniProt P51617).
T2 construct: purchased RBC (Reaction Biology) HotSpot assay
T2 sequence (P51617 whole entry): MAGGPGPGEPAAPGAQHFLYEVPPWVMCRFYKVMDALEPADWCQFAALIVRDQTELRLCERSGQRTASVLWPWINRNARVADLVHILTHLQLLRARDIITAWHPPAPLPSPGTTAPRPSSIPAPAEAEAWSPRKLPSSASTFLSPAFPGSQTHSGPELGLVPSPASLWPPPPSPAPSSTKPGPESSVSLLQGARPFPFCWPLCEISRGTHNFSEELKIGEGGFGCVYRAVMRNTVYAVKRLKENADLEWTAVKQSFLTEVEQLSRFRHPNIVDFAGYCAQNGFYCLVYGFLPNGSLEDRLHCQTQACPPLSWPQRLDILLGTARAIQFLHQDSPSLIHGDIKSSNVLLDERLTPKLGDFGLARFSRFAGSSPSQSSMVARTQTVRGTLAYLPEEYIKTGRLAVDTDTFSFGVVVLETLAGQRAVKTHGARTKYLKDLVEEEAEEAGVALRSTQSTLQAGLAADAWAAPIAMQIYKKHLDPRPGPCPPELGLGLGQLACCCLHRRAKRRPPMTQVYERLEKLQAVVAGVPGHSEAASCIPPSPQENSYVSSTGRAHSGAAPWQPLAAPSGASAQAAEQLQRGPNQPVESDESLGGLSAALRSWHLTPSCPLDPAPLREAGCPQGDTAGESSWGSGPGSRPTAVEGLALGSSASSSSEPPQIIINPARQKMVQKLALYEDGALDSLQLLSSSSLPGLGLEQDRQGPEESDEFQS
The experiment in a line: RBC HotSpot Kinase Assay, IRAK1. Format: biochemical. The following applies: HotSpot functional assay, isolated kinase enzyme, 33P-ATP. The procedure, abridged:
as §1

In general, IC50 refers to the concentration that gives 50% inhibition. Read a low IC50 as greater potency. For the molecule `COc1cc2ncc(-c3nc(N[C@H]4CNCC[C@@H]4F)c(F)cc3F)n2nc1C(C)(O)C(F)(F)F` (single isomer, unassigned) [Compound 77a], the IC50 was determined as 16 nM against IRAK4 and 362 nM against IRAK1.
The corresponding values for `COc1cc2ncc(-c3nc(N[C@H]4CNC[C@@H]4F)c(F)cc3F)n2nc1C(C)(O)C(F)(F)F` (single isomer, unassigned) [Compound 80a] are 24 nM and 1550 nM.
In the case of `COc1cc2ncc(-c3nc(N[C@@H]4CCCNC4)c(F)cc3F)n2nc1C(C)(O)C(F)(F)F` (single isomer, unassigned) [Compound 81a], the IC50 against IRAK4 is 59 nM; at IRAK1, 589 nM.
For `COc1cc2ncc(-c3nc(N[C@H]4CNCC[C@@H]4F)c(F)cc3F)n2nc1C1CC2(CCC2)C1` [Compound 10a, 3,5-difluoro-N-((3S,4S)-4-fluoropiperidin-3-yl)-6-(7-methoxy-6-(spiro[3.3]heptan-2-yl)imidazo[1,2-b]pyridazin-3-yl)pyridin-2-amine] the same measures were 22 nM and 72 nM.
The corresponding values for `COc1cc2ncc(-c3nc(N[C@H]4CNC[C@@H]4F)c(F)cc3F)n2nc1C1CC2(CCC2)C1` [Compound 12a, 3,5-difluoro-N-((3S,4S)-4-fluoropyrrolidin-3-yl)-6-(7-methoxy-6-(spiro[3.3]heptan-2-yl)imidazo[1,2-b]pyridazin-3-yl)pyridin-2-amine] are 6 nM and 88 nM.
Turning to `COc1cc2ncc(-c3nc(N[C@H]4CNCC[C@@H]4F)c(F)cc3F)n2nc1C1CCC1` [Compound 15a, 6-(6-cyclobutyl-7-methoxyimidazo[1,2-b]pyridazin-3-yl)-3,5-difluoro-N-((3S,4S)-4-fluoropiperidin-3-yl)pyridin-2-amine], the half-inhibitory concentration (IC50) at IRAK4 stood at 2 nM; against IRAK1, 12 nM.
The corresponding values for `COc1cc2ncc(-c3nc(N[C@H]4CNCC[C@@H]4F)c(F)cc3F)n2nc1C12CC(C1)C2` [Compound 67a, 6-(6-(bicyclo[1.1.1]pentan-1-yl)-7-methoxyimidazo[1,2-b]pyridazin-3-yl)-3,5-difluoro-N-((3S,4S)-4-fluoropiperidin-3-yl)pyridin-2-amine] are 3 nM and 9 nM.
